{"source": "patent US11401555B2", "about": "“Genetic polymorphisms associated with stroke, methods of detection and uses thereof” (CELERA CORPORATION, priority 2008, dated 2022)", "test": "Stroke statin response (SSR) in the PROSPER pravastatin trial: pravastatin-treated versus placebo-treated, by SNP genotype", "assay_type": "in vivo, human", "details": "for HR_RESP_unadj (hazard ratio, pravastatin-treated versus placebo-treated): endpoint stroke; for EVENTS_RESP (number of stroke events): pravastatin arm", "text": "(hCV26505812) for association with SSR in CARE (Table 37) and PROSPER (Table 38), including both unadjusted and adjusted analyses (adjusted for factors such as age, gender, smoking status, hypertension, diabetes, BMI, and LDL and HDL levels). Table 37 provides results in CARE, and Table 38 provides results in PROSPER (whether each analysis is unadjusted or adjusted is indicated in the “adjust” column in Table 37, or by “unadj” and “adj” column labels in Tables 38). With respect to Tables 22-32 and 37-38, the columns labeled “Genotype” (in Tables 22-28 and 37), “Geno_Placebo” (in Tables 29-30 and 38), and “Geno_Resp” (in Tables 31-32 and 38) indicate the genotype which the given stroke risk or SSR results correspond to. […] In Tables 29-32 and 38, the columns labeled “LOWER_PLACEBO” and “UPPER_PLACEBO” (Tables 29-30 and 38), and “LOWER_RESP” and “UPPER_RESP” (Tables 31-32 and 38), refer to the lower and upper 95% confidence intervals for the hazard ratios. See Example Six below for further information relating to Tables 22-32 and 37-38. […] As used herein, the term “benefit” (with respect to a preventive or therapeutic drug treatment) is defined as achieving a reduced risk for a disease that the drug is intended to treat or prevent (e.g., stroke) by administrating the drug treatment, compared with the risk for the disease in the absence of receiving the drug treatment (or receiving a placebo in lieu of the drug treatment) for the same genotype. The term “benefit” may be used herein interchangeably with terms such as “respond positively” or “positively respond”. For stroke risk and statin response associations based on samples from the CARE and PROSPER trials described herein, stroke risk is assessed by comparing the risk of stroke for a given genotype with the risk of stroke for a reference genotype either in the placebo arm of the trial or in the whole study population of the trial, and statin response is assessed by comparing the risk of stroke in the pravastatin arm of the trial with the risk of stroke in the placebo arm of the trial for the same genotype. […] Example Five above describes the analysis of these 61 SNPs plus 17 additional SNPs in the German West Study. […] In PROSPER, SNPs were analyzed for association with stroke risk or SSR, in the whole study cohort (strata: “ALL”), or in the subgroup with a history of CVD (strata: “hist”) or without a CVD history (strata: “no hist”). […] Also in the CARE and PROSPER trials, the chromosome 9p21 SNP […] (hCV26505812) was analyzed further for association with SSR, including unadjusted and adjusted analysis. Adjusted analysis in CARE (Table 37) was adjusted for age, gender, smoking status, hypertension, diabetes, body mass index (BMI), and LDL and HDL levels, and adjusted analysis in PROSPER (Table 38) was adjusted for country, gender, age, LDL, HDL, smoking status (current vs. past or never), history of hypertension, and diabetes. Table 37 provides results in CARE, and Table 38 provides results in PROSPER (whether each analysis is unadjusted or adjusted is indicated in the “adjust” column in Table 37, or by “unadj” and “adj” column labels in Tables 38). All the p-values (including Pint values) provided in Tables 37-38 are two-sided p-values.", "key": {"[1]": {"details": "hCV1348610 rs3739636 C9orf46, GENO_RESP AA + AG, MODE DOM, STRATA hist"}, "[2]": {"details": "hCV1348610 rs3739636 C9orf46, GENO_RESP AA, MODE GEN, STRATA hist"}, "[3]": {"details": "hCV1348610 rs3739636 C9orf46, GENO_RESP AG, MODE GEN, STRATA hist"}, "[4]": {"details": "hCV1348610 rs3739636 C9orf46, GENO_RESP GG, MODE GEN, STRATA hist"}, "[5]": {"details": "hCV2091644 rs1010 VAMP8, GENO_RESP CC, MODE GEN, STRATA no hist"}, "[6]": {"details": "hCV2091644 rs1010 VAMP8, GENO_RESP CT, MODE GEN, STRATA no hist"}, "[7]": {"details": "hCV2091644 rs1010 VAMP8, GENO_RESP TT, MODE GEN, STRATA no hist"}}, "data": [{"smiles": "CC[C@H](C)C(=O)O[C@H]1C[C@H](O)C=C2C=C[C@H](C)[C@H](CC[C@@H](O)C[C@@H](O)CC(=O)O)[C@H]21", "note": "[pravastatin]", "values": [{"measurement": "HR_RESP_unadj (hazard ratio, pravastatin-treated versus placebo-treated)", "setting": "PROSPER, rs10757274 genotype AA + AG, mode REC, strata ALL, unadjusted", "value": 0.919}, {"measurement": "HR_RESP_unadj (hazard ratio, pravastatin-treated versus placebo-treated)", "setting": "PROSPER, rs10757274 genotype AA + AG, mode REC, strata hist, unadjusted", "value": 0.885}, {"measurement": "HR_RESP_unadj (hazard ratio, pravastatin-treated versus placebo-treated)", "setting": "PROSPER, rs10757274 genotype AA + AG, mode REC, strata no hist, unadjusted", "value": 0.927}, {"measurement": "HR_RESP_unadj (hazard ratio, pravastatin-treated versus placebo-treated)", "setting": "PROSPER, rs10757274 genotype AA, mode GEN, strata ALL, unadjusted", "value": 1.330}, {"measurement": "HR_RESP_unadj (hazard ratio, pravastatin-treated versus placebo-treated)", "setting": "PROSPER, rs10757274 genotype AA, mode GEN, strata hist, unadjusted", "value": 1.093}, {"measurement": "HR_RESP_unadj (hazard ratio, pravastatin-treated versus placebo-treated)", "setting": "PROSPER, rs10757274 genotype AA, mode GEN, strata no hist, unadjusted", "value": 1.570}, {"measurement": "HR_RESP_unadj (hazard ratio, pravastatin-treated versus placebo-treated)", "setting": "PROSPER, rs10757274 genotype AG, mode GEN, strata ALL, unadjusted", "value": 0.777}, {"measurement": "HR_RESP_unadj (hazard ratio, pravastatin-treated versus placebo-treated)", "setting": "PROSPER, rs10757274 genotype AG, mode GEN, strata hist, unadjusted", "value": 0.816}, {"measurement": "HR_RESP_unadj (hazard ratio, pravastatin-treated versus placebo-treated)", "setting": "PROSPER, rs10757274 genotype AG, mode GEN, strata no hist, unadjusted", "value": 0.698}, {"measurement": "HR_RESP_unadj (hazard ratio, pravastatin-treated versus placebo-treated)", "setting": "PROSPER, rs10757274 genotype GG + AG, mode DOM, strata ALL, unadjusted", "value": 0.864}, {"measurement": "HR_RESP_unadj (hazard ratio, pravastatin-treated versus placebo-treated)", "setting": "PROSPER, rs10757274 genotype GG + AG, mode DOM, strata hist, unadjusted", "value": 0.892}, {"measurement": "HR_RESP_unadj (hazard ratio, pravastatin-treated versus placebo-treated)", "setting": "PROSPER, rs10757274 genotype GG + AG, mode DOM, strata no hist, unadjusted", "value": 0.813}, {"measurement": "HR_RESP_unadj (hazard ratio, pravastatin-treated versus placebo-treated)", "setting": "PROSPER, rs10757274 genotype GG, mode GEN, strata ALL, unadjusted", "value": 1.082}, {"measurement": "HR_RESP_unadj (hazard ratio, pravastatin-treated versus placebo-treated)", "setting": "PROSPER, rs10757274 genotype GG, mode GEN, strata hist, unadjusted", "value": 1.098}, {"measurement": "HR_RESP_unadj (hazard ratio, pravastatin-treated versus placebo-treated)", "setting": "PROSPER, rs10757274 genotype GG, mode GEN, strata no hist, unadjusted", "value": 1.068}, {"measurement": "HR (hazard ratio) for stroke events, pravastatin-treated versus placebo-treated", "setting": "PROSPER, heterozygous carriers of SNP rs10757274 (chromosome 9p21), unadjusted", "value": 0.777}, {"measurement": "EVENTS_RESP (number of stroke events)", "setting": "PROSPER, genotype AA + AG, mode REC, strata ALL", "value": 150}, {"measurement": "EVENTS_RESP (number of stroke events)", "setting": "PROSPER, genotype AA + AG, mode REC, strata hist", "value": 87}, {"measurement": "EVENTS_RESP (number of stroke events)", "setting": "PROSPER, genotype AA + AG, mode REC, strata no hist", "value": 63}, {"measurement": "EVENTS_RESP (number of stroke events)", "setting": "PROSPER, genotype AA, mode GEN, strata ALL", "value": 56}, {"measurement": "EVENTS_RESP (number of stroke events)", "setting": "PROSPER, genotype AA, mode GEN, strata hist", "value": 28}, {"measurement": "EVENTS_RESP (number of stroke events)", "setting": "PROSPER, genotype AA, mode GEN, strata no hist", "value": 28}, {"measurement": "EVENTS_RESP (number of stroke events)", "setting": "PROSPER, genotype AG, mode GEN, strata ALL", "value": 94}, {"measurement": "EVENTS_RESP (number of stroke events)", "setting": "PROSPER, genotype AG, mode GEN, strata hist", "value": 59}, {"measurement": "EVENTS_RESP (number of stroke events)", "setting": "PROSPER, genotype AG, mode GEN, strata no hist", "value": 35}, {"measurement": "EVENTS_RESP (number of stroke events)", "setting": "PROSPER, genotype GG + AG, mode DOM, strata ALL", "value": 145}, {"measurement": "EVENTS_RESP (number of stroke events)", "setting": "PROSPER, genotype GG + AG, mode DOM, strata hist", "value": 86}, {"measurement": "EVENTS_RESP (number of stroke events)", "setting": "PROSPER, genotype GG + AG, mode DOM, strata no hist", "value": 59}, {"measurement": "EVENTS_RESP (number of stroke events)", "setting": "PROSPER, genotype GG, mode GEN, strata ALL", "value": 51}, {"measurement": "EVENTS_RESP (number of stroke events)", "setting": "PROSPER, genotype GG, mode GEN, strata hist", "value": 27}, {"measurement": "EVENTS_RESP (number of stroke events)", "setting": "PROSPER, genotype GG, mode GEN, strata no hist", "value": 24}, {"measurement": "EVENTS_RESP", "setting": "[1]", "value": 71}, {"measurement": "HR_RESP (hazard ratio, pravastatin-treated versus placebo-treated)", "setting": "[1]", "value": 0.8064}, {"measurement": "EVENTS_RESP", "setting": "[2]", "value": 24}, {"measurement": "HR_RESP (hazard ratio, pravastatin-treated versus placebo-treated)", "setting": "[2]", "value": 0.9861}, {"measurement": "EVENTS_RESP", "setting": "[3]", "value": 47}, {"measurement": "HR_RESP (hazard ratio, pravastatin-treated versus placebo-treated)", "setting": "[3]", "value": 0.7406}, {"measurement": "EVENTS_RESP", "setting": "[4]", "value": 43}, {"measurement": "HR_RESP (hazard ratio, pravastatin-treated versus placebo-treated)", "setting": "[4]", "value": 1.277}, {"measurement": "EVENTS_RESP", "setting": "hCV2091644 rs1010 VAMP8, GENO_RESP CC + CT, MODE DOM, STRATA no hist", "value": 50}, {"measurement": "EVENTS_RESP", "setting": "[5]", "value": 13}, {"measurement": "HR_RESP (hazard ratio, pravastatin-treated versus placebo-treated)", "setting": "[5]", "value": 0.6359}, {"measurement": "EVENTS_RESP", "setting": "[6]", "value": 37}, {"measurement": "HR_RESP (hazard ratio, pravastatin-treated versus placebo-treated)", "setting": "[6]", "value": 0.8504}, {"measurement": "EVENTS_RESP", "setting": "[7]", "value": 36}, {"measurement": "HR_RESP (hazard ratio, pravastatin-treated versus placebo-treated)", "setting": "[7]", "value": 1.358}, {"measurement": "EVENTS_RESP", "setting": "hCV2169762 rs1804689 HPS1, GENO_RESP GG + GT, MODE REC, STRATA hist", "value": 109}, {"measurement": "EVENTS_RESP", "setting": "hCV2169762 rs1804689 HPS1, GENO_RESP GG, MODE GEN, STRATA hist", "value": 62}]}]}
